Measured values published in patent US7192948B2, “Bicyclic heterocycles as HIV integrase inhibitors” (priority 2004, dated 2007).

Assays:
HIV-integrase = biological target: T1, HIV-integrase (Human immunodeficiency virus type 1 group M subtype B, UniProt P12497); assay: HIV-Integrase Inhibition Activity (SPA bead strand transfer assay); assay type: biochemical; conditions: recombinant integrase, in vitro
T1 construct: Recombinant integrase (0.26 ng) was incubated with the beads
Protocol: HIV-Integrase Inhibition Activity. To evaluate in-vitro activity against HIV-integrase, 5 pmole of biotin labeled substrate DNA was bound to 100 μg of Streptavidin coated PVT SPA beads (Amersham Pharmacia Biotech). Recombinant integrase (0.26 ng) was incubated with the beads for 90 min at 37° C. Unbound enzyme was removed by washing the complex followed by addition of inhibitors and 0.1 fmol of P33 labeled target DNA. The reaction was stopped by adding EDTA to a final concentration of […]. Samples were counted in TopCountNXT (Packard) and the CPM was used as a measure of integration. The reaction condition was as described in A. Engelman and R. Craigie, J. Virol. 69, 5908–5911 (1995). The sequences of substrate and target DNA were described in Nucleic Acid Research 22, 1121–1122 (1994).

Row | SMILES | melting point | IC50 (HIV-integrase) [nM]
1 | O=C1Cn2c(nc(C(=O)NCc3ccc(Cl)c(Cl)c3)c(O)c2=O)N1 [Example 2, 6-Hydroxy-2,5-dioxo-1,2,3,5-tetrahydro-imidazo[1,2-a]pyrimidine-7-carboxylic acid 3,4-dichloro-benzylamide] | 280 °C (dec.) | 4 to 15
2 | Cc1cc(CNC(=O)c2nc3n(c(=O)c2O)CC(=O)N3)ccc1F [Example 3, 6-Hydroxy-2,5-dioxo-1,2,3,5-tetrahydro-imidazo[1,2-a]pyrimidine-7-carboxylic acid 4-fluoro-3-methyl-benzylamide] | 287 °C (dec.) | 16 to 49000
3 | O=C1Cn2c(nc(C(=O)NCc3ccc(F)c(Cl)c3)c(O)c2=O)N1 [Example 4, 6-Hydroxy-2,5-dioxo-1,2,3,5-tetrahydro-imidazo[1,2-a]pyrimidine-7-carboxylic acid 3-chloro-4-fluoro-benzylamide] | 295 °C (dec.) | 16 to 49000
4 | Cc1ccc(CNC(=O)c2nc3n(c(=O)c2O)CC(=O)N3)cc1C [Example 5, 6-Hydroxy-2,5-dioxo-1,2,3,5-tetrahydro-imidazo[1,2-a]pyrimidine-7-carboxylic acid 3,4-dimethyl-benzylamide] | 287 °C (dec.) | 16 to 49000
5 | O=C1CCn2c(nc(C(=O)NCc3ccc(F)cc3)c(O)c2=O)N1 [Example 6, 3-Hydroxy-4,8-dioxo-6,7,8,9-tetrahydro-4H-pyrimido[1,2-a]pyrimidine-2-carboxylic acid 4-fluoro-benzylamide] | > 300 °C (dec.) | 16 to 49000
6 | O=C1CCn2c(nc(C(=O)NCc3ccc(Cl)c(Cl)c3)c(O)c2=O)N1 [Example 7, 3-Hydroxy-4,8-dioxo-6,7,8,9-tetrahydro-4H-pyrimido[1,2-a]pyrimidine-2-carboxylic acid 3,4-dichloro-benzylamide] | > 300 °C (dec.) | 4 to 15
7 | Cc1cc(CNC(=O)c2nc3n(c(=O)c2O)CCC(=O)N3)ccc1F [Example 8, 3-Hydroxy-4,8-dioxo-6,7,8,9-tetrahydro-4H-pyrimido[1,2-a]pyrimidine-2-carboxylic acid 4-fluoro-3-methyl-benzylamide] | > 300 °C | 4 to 15
8 | CN1C(=O)CCn2c1nc(C(=O)NCc1ccc(F)cc1)c(O)c2=O [Example 18, N-(4-Fluorobenzyl)-3-hydroxy-9-methyl-4,8-dioxo-6,7,8,9-tetrahydro-4H-pyrimido[1,2-a]pyrimidine-2-carboxamide] | 176 to 178 °C | 16 to 49000
9 | CN1C(=O)CCn2c1nc(C(=O)NCc1ccc(Cl)c(Cl)c1)c(O)c2=O [Example 19, N-(3,4-Dichlorobenzyl)-3-hydroxy-9-methyl-4,8-dioxo-6,7,8,9-tetrahydro-4H-pyrimido[1,2-a]pyrimidine-2-carboxamide] | 198 to 201 °C | 4 to 15
10 | Cc1cc(CNC(=O)c2nc3n(c(=O)c2O)CCC(=O)N3C)ccc1F [Example 20, N-(4-Fluoro-3-methylbenzyl)-3-hydroxy-9-methyl-4,8-dioxo-6,7,8,9-tetrahydro-4H-pyrimido[1,2-a]pyrimidine-2-carboxamide] | 216 °C | 4 to 15
11 | CN1C(=O)CCn2c1nc(C(=O)NCc1ccc(F)c(Cl)c1)c(O)c2=O [Example 21, N-(3-Chloro-4-fluorobenzyl)-3-hydroxy-9-methyl-4,8-dioxo-6,7,8,9-tetrahydro-4H-pyrimido[1,2-a]pyrimidine-2-carboxamide] | 201 °C | 4 to 15
12 | Cc1ccc(CNC(=O)c2nc3n(c(=O)c2O)CCC(=O)N3C)cc1C [Example 22, N-(3,4-Dimethylbenzyl)-3-hydroxy-9-methyl-4,8-dioxo-6,7,8,9-tetrahydro-4H-pyrimido[1,2-a]pyrimidine-2-carboxamide] | 181 °C | 16 to 49000
13 | O=C(NCc1ccc(F)cc1)c1nc2n(c(=O)c1O)CC(=O)N1CCC[C@@H]21 [Example 46, (S)-7-Hydroxy-4,6-dioxo-2,3,4,5,6,9b-hexahydro-1H-3a,5a,9-triaza-benz[e]indene-8-carboxylic acid 4-fluoro-benzylamide] |  | ≥ 50
